Source: US10954269B2, “Anti-inflammatory tripeptides” (Dr. August Wolff Gmbh & Co. KG Arzneimittel, priority 2013, dated 2021)

How the values were obtained:
Conditions in all cases: substance 10^−9M
primary human T-cells = test: Cytokine secretion on protein level in activated primary human T-cells (13-plex FACS / Luminex, supernatant); assay type: cell-based
Method: (§1) Primary T-cells were isolated from peripheral blood from healthy volunteers and from secondary lymphatic organs from naïve C57BL/6 mice, respectively. The cells were stimulated with phorbol-12-myristate-13-acetate (PMA)/Ionomycin and interferon-gamma (IFN-γ), respectively, for 48 h to activate the cells. The activated cells release pro-inflammatory cytokines. In parallel a human (HaCaT) keratinocyte cell line was activated with PMA/Ionomycin and IFN-γ, respectively, too. […] At the same time release of anti-inflammatory IL-10 was inhibited. Two days after addition of PMA/Ionomycin and IFN-γ, respectively, the induction of IL-1 secretion was determined in the supernatant for proving that the cells are activated. […] The anti-inflammatory properties of the tripeptides were determined 48 h and 72 h following stimulation. A 13-plex-system based FACS analysis was used for showing the reduced secretion of pro-inflammatory cytokines in the supernatant. Data for IL-1, IL-2, IL-6, IL-12p70 IL-17, IFN-γ and TNF-α are considered to be most relevant. Thus, analysis of the anti-inflammatory properties of the tripeptides is preferably based on the results obtained for these analytes. […] Using this method the gene expression of pro-inflammatory markers like IL-6, IL-17, IFN-γ and TNF-α was determined.
(§2) In a third experiment murine and human T cells and HaCaT cells were stimulated with PMA/Ionomycin and treated with Examples 14, 15, 16 and 17 at 10^−7 M, 10^−9 M and 10^−11 M. Cytokine concentrations (IFN-γ, IL-17 and IL-10 for T cells and IFN-γ for HaCat) were assessed in the supernatants using the Luminex technology. Expression of genes coding for Il-1β, IL-6 and TNF-α was determined. […] Moreover, concentrations of pro-inflammatory cytokines IFN-γ and IL-17 was reduced in the supernatants whereas the concentration of anti-inflammatory cytokine IL-10 was increased. […]
(§3) For the biological assay two human cell lines of different origin were chosen to allow for translation of the results obtained. A HaCaT cell is a cell type belonging to an immortal human keratinocyte line used in scientific research. Its use in research allows for the characterization of human keratinocyte using a model that is reproducible and representing a human epithelial cell line. In contrast human T-lymphocytes (T-cells) are a type of lymphocyte (itself a type of white blood cell) that play a central role in cell-mediated inflammation/immunity.

primary murine T-cells = test: Cytokine secretion on protein level in activated primary murine T-cells (13-plex FACS / Luminex, supernatant); assay type: cell-based, C57BL/6 mice
Method: as §1
In a third experiment murine and human T cells and HaCaT cells were stimulated with PMA/Ionomycin and treated with Examples 14, 15, 16 and 17 at 10^−7 M, 10^−9 M and 10^−11 M. Cytokine concentrations (IFN-γ, IL-17 and IL-10 for T cells and IFN-γ for HaCat) were assessed in the supernatants using the Luminex technology. Expression of genes coding for Il-1β, IL-6 and TNF-α was determined. […] Moreover, concentrations of pro-inflammatory cytokines IFN-γ and IL-17 was reduced in the supernatants whereas the concentration of anti-inflammatory cytokine IL-10 was increased.
The anti-inflammatory and immunomodulatory effects of selected examples of the present invention were compared with common immunosuppressants. Thus, cells activated with PMA/Ionomycin and IFN-γ, respectively, were stimulated with MMF or dexamethasone. Following stimulation the secretion of pro-inflammatory cytokines was analyzed on protein and gene level (Table 9 and FIGS. 4-6).

[1] = test system: human keratinocyte cell line (HaCaT); test: Cytokine secretion on protein level in activated human keratinocyte cell line HaCaT (13-plex FACS / Luminex, supernatant); assay type: cell-based
Method: as §1, §2, §3

[2] = primary human T-cells stimulated with IFN-γ
[3] = primary human T-cells stimulated with PBS
[4] = primary human T-cells stimulated with PMA/Ionomycin
[5] = primary murine T-cells stimulated with IFN-γ
[6] = primary murine T-cells stimulated with PBS
[7] = primary murine T-cells stimulated with PMA/Ionomycin
[8] = HaCaT stimulated with PMA/Ionomycin

## COc1c(C)c2c(c(O)c1C/C=C(\C)CCC(=O)OCCN1CCOCC1)C(=O)OC2 [MMF, mycophenolate mofetil, reference compound]
Primary human T-cells; [2]
  IL-1 cytokine concentration: 0 pg/mL
  IL-2 cytokine concentration: 0 pg/mL
  IL-4 cytokine concentration: 0 pg/mL
  IL-5 cytokine concentration: 0 pg/mL
  IL-6 cytokine concentration: 62.15 pg/mL
  IL-9 cytokine concentration: 0 pg/mL
  IL-10 cytokine concentration: 0 pg/mL
  IL-12 cytokine concentration: 0 pg/mL
  IL-13 cytokine concentration: 0 pg/mL
  IL-17 cytokine concentration: 0 pg/mL
  IL-22 cytokine concentration: 0 pg/mL
  TNF-α cytokine concentration: 0 pg/mL
Primary human T-cells; [3]
  IFN-γ cytokine concentration: 0 pg/mL
  IL-1 cytokine concentration: 0 pg/mL
  IL-2 cytokine concentration: 39.68 pg/mL
  IL-4 cytokine concentration: 0 pg/mL
  IL-5 cytokine concentration: 0 pg/mL
  IL-6 cytokine concentration: 94.62 pg/mL
  IL-9 cytokine concentration: 28.13 pg/mL
  IL-10 cytokine concentration: 79.26 pg/mL
  IL-12 cytokine concentration: 0 pg/mL
  IL-13 cytokine concentration: 79.09 pg/mL
  IL-17 cytokine concentration: 71.42 pg/mL
  IL-22 cytokine concentration: 0 pg/mL
  TNF-a cytokine concentration: 53.91 pg/mL
Primary human T-cells; [4]
  IFN-γ cytokine concentration: 9491.25 pg/mL
  IL-1 cytokine concentration: 505.05 pg/mL
  IL-2 cytokine concentration: 1498.52 pg/mL
  IL-4 cytokine concentration: 29.49 pg/mL
  IL-5 cytokine concentration: 309.88 pg/mL
  IL-6 cytokine concentration: 1198.6 pg/mL
  IL-9 cytokine concentration: 339.89 pg/mL
  IL-10 cytokine concentration: 814.79 pg/mL
  IL-12 cytokine concentration: 0 pg/mL
  IL-13 cytokine concentration: 1072.09 pg/mL
  IL-17 cytokine concentration: 1097.19 pg/mL
  IL-22 cytokine concentration: 0 pg/mL
  TNF-a cytokine concentration: 3987.21 pg/mL
Primary murine T-cells; [5]
  IL-1 cytokine concentration: 100.02 pg/mL
  IL-2 cytokine concentration: 79.63 pg/mL
  IL-4 cytokine concentration: 59.48 pg/mL
  IL-5 cytokine concentration: 254.61 pg/mL
  IL-6 cytokine concentration: 111.95 pg/mL
  IL-10 cytokine concentration: 936.45 pg/mL
  IL-13 cytokine concentration: 0 pg/mL
  IL-17 cytokine concentration: 61.58 pg/mL
  IL-21 cytokine concentration: 0 pg/mL
  IL-22 cytokine concentration: 55.98 pg/mL
  IL-27 cytokine concentration: 40.8 pg/mL
  TNF-α cytokine concentration: 33.64 pg/mL
Primary murine T-cells; [6]
  IFN-γ cytokine concentration: 0 pg/mL
  IL-1 cytokine concentration: 62.31 pg/mL
  IL-2 cytokine concentration: 100.77 pg/mL
  IL-4 cytokine concentration: 61.12 pg/mL
  IL-5 cytokine concentration: 337.89 pg/mL
  IL-6 cytokine concentration: 90.56 pg/mL
  IL-10 cytokine concentration: 745.12 pg/mL
  IL-13 cytokine concentration: 0 pg/mL
  IL-17 cytokine concentration: 0 pg/mL
  IL-21 cytokine concentration: 0 pg/mL
  IL-22 cytokine concentration: 90.45 pg/mL
  IL-27 cytokine concentration: 80.11 pg/mL
  TNF-α cytokine concentration: 88.47 pg/mL
Primary murine T-cells; [7]
  IFN-γ cytokine concentration: 1808.99 pg/mL
  IL-1 cytokine concentration: 158.59 pg/mL
  IL-2 cytokine concentration: 109.88 pg/mL
  IL-4 cytokine concentration: 64.89 pg/mL
  IL-5 cytokine concentration: 200.98 pg/mL
  IL-6 cytokine concentration: 169.84 pg/mL
  IL-10 cytokine concentration: 995.6 pg/mL
  IL-13 cytokine concentration: 0 pg/mL
  IL-17 cytokine concentration: 67 pg/mL
  IL-21 cytokine concentration: 0 pg/mL
  IL-22 cytokine concentration: 111.98 pg/mL
  IL-27 cytokine concentration: 102.96 pg/mL
  TNF-α cytokine concentration: 50.14 pg/mL
[1]; HaCaT stimulated with IFN-γ
  IL-1 cytokine concentration: 0 pg/mL
  IL-2 cytokine concentration: 0 pg/mL
  IL-4 cytokine concentration: 33.01 pg/mL
  IL-5 cytokine concentration: 0 pg/mL
  IL-6 cytokine concentration: 239.05 pg/mL
  IL-9 cytokine concentration: 0 pg/mL
  IL-10 cytokine concentration: 0 pg/mL
  IL-12 cytokine concentration: 0 pg/mL
  IL-13 cytokine concentration: 0 pg/mL
  IL-17 cytokine concentration: 58.48 pg/mL
  IL-22 cytokine concentration: 0 pg/mL
  TNF-α cytokine concentration: 0 pg/mL
[1]; HaCaT stimulated with PBS
  IFN-γ cytokine concentration: 0 pg/mL
  IL-1 cytokine concentration: 0 pg/mL
  IL-2 cytokine concentration: 0 pg/mL
  IL-4 cytokine concentration: 120.89 pg/mL
  IL-5 cytokine concentration: 0 pg/mL
  IL-6 cytokine concentration: 39.58 pg/mL
  IL-9 cytokine concentration: 0 pg/mL
  IL-10 cytokine concentration: 33.26 pg/mL
  IL-12 cytokine concentration: 0 pg/mL
  IL-13 cytokine concentration: 0 pg/mL
  IL-17 cytokine concentration: 0 pg/mL
  IL-22 cytokine concentration: 0 pg/mL
  TNF-α cytokine concentration: 0 pg/mL
[1]; [8]
  IFN-γ cytokine concentration: 0 pg/mL
  IL-1 cytokine concentration: 0 pg/mL
  IL-2 cytokine concentration: 0 pg/mL
  IL-4 cytokine concentration: 98.71 pg/mL
  IL-5 cytokine concentration: 0 pg/mL
  IL-6 cytokine concentration: 116.51 pg/mL
  IL-9 cytokine concentration: 0 pg/mL
  IL-10 cytokine concentration: 66.23 pg/mL
  IL-12 cytokine concentration: 0 pg/mL
  IL-13 cytokine concentration: 0 pg/mL
  IL-17 cytokine concentration: 0 pg/mL
  IL-22 cytokine concentration: 0 pg/mL
  TNF-α cytokine concentration: 0 pg/mL
